Assay results: patent US20110178142A1, “PHARMACEUTICAL COMPOSITION FOR THERAPEUTIC OR PROPHYLACTIC TREATMENT OF BACTERIAL INFECTIONS AND ASSOCIATED DISEASES” (National Institute of Immunology, priority 2008, published 2011)

How the values were obtained:
FtsZ (Y371W) = molecular target: T1, FtsZ (Y371W) (Escherichia coli, UniProt P0A9A6, Y371W); assay: Binding to FtsZ by tryptophan fluorescence quenching, double reciprocal plot; design: species or system E. coli; settings: FtsZ (Y371W) 1 μM, 25° C., read-out: dissociation constant of FtsZ-compound complex
T1 sequence (P0A9A6 1-383 Y371W): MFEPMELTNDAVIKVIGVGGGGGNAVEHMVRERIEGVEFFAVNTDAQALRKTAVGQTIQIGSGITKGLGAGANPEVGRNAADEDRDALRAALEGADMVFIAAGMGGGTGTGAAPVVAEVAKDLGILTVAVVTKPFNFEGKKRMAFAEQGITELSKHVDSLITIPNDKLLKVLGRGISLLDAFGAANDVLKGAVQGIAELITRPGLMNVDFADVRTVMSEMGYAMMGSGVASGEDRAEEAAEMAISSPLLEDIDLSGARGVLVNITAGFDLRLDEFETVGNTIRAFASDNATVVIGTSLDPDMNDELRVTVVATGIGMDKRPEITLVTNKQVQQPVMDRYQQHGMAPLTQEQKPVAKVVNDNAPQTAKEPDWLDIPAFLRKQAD
Experimental: (Beuria T K, Santra M K and Panda D. (2005) Sanguinarine blocks cytokinesis in bacteria by inhibiting FtsZ assembly and bundling. Biochemistry. 44, 16584-93). […] The change in the fluorescence intensity was used to calculate the dissociation constant of FtsZ-compound complex. A dissociation constant of 15±1.5 μM was determined using a double reciprocal plot of the binding data (FIG. 5B).

FtsZ [1] = molecular target: T2, FtsZ (Escherichia coli, UniProt P0A9A6); assay: GTPase activity of FtsZ (malachite green ammonium molybdate assay); assay type: biochemical, E. coli
T2 construct: The recombinant protein is exactly same as the natural protein; made in house; host or cells: E. coli BL21
Source text: (§1) FtsZ was over-expressed and purified from E. coli BL21 strain as described by Santa and Panda. (Detection of an intermediate during unfolding of bacterial cell division protein FtsZ: loss of functional properties precedes the global unfolding of FtsZ. (2003). The Journal of Biological Chemistry. 278, 21336-43). The recombinant protein is exactly same as the natural protein. For all the experimental procedures, the above expressed and purified recombinant FtsZ was used. The FtsZ concentration was measured by the Bradford method using BSA as a standard (Bradford M M. (1976) A rapid and sensitive method for the quantitation of microgram quantities of protein utilizing the principle of protein-dye binding. Analytical Biochemistry. 72, 248-54). The purified protein was frozen and stored at −80° C. Prior to use, FtsZ was thawed and centrifuged at 287,000 ×g for 30 min to remove any insoluble aggregates.
It was then polymerized in the presence of 10 mM magnesium and 1 mM GTP at 37° C. The GTP hydrolysis reaction was quenched at different time points by adding perchloric acid. Moles of inorganic phosphate released per mole of FtsZ were measured using the standard malachite green ammonium molybdate assay (Geladopoulos T P, Sotiroudis T G and Evangelopoulos A E. (1991). A malachite green colorimetric assay for protein phosphatase activity. Analytical Biochemistry.192,112-6;Beuria T K, Krishnakumar S S, Sahar S, Singh N, Gupta K, Meshram M and Panda D. (2003) Glutamate-induced assembly of bacterial cell division protein FtsZ. The Journal of Biological Chemistry. 278, 3735-41).

FtsZ [2] = molecular target: T2, FtsZ; assay: Sedimentation assay of FtsZ polymerization; assay type: biochemical, E. coli; settings: 50 μM compound; FtsZ 12 μM
Source text: as §1, with “Prior to use, FtsZ was thawed and centrifuged at 287,000 ×g for 30 min to remove any insoluble aggregates.” left out
Then, 10 mM MgSO4 and 1 mM GTP were added to the reaction mixtures and incubated for an additional 15 min at 37° C. Polymerized FtsZ was sedimented at 287,000×g for […], and the protein concentration in the supernatant was measured (Santra M K and Panda D. (2007) Acid-induced loss of functional properties of bacterial cell division protein FtsZ: evidence for an alternative conformation at acidic pH, Proteins. 67,177-88). The protein concentration in the pellet was calculated by subtracting the protein concentration in the supernatant from the total protein concentration.

FtsZ [3] = molecular target: T2, FtsZ; assay: Far-UV circular dichroism of FtsZ; design: species or system E. coli; settings: 0-50 μM compound; FtsZ 1 μM
Source text: as §1
The far-UV CD spectra were recorded using a JASCO spectropolarimeter. The secondary structure was monitored over the wavelength range of 200-260 nm using a 0.1-cm path length cuvette and the ellipticity was determined at 220 nm. Each spectrum was recorded using an average of 3 scans.

FtsZ [4] = molecular target: T2, FtsZ; assay: Electron microscopic analysis of FtsZ assembly; assay type: biochemical, E. coli
Source text: as §1
FtsZ (12 μM) in 25 mM pipes buffer (pH 6.5) was incubated without or with different concentrations of compound for 10 min on ice. Then, 10 mM MgSO4 and 1 mM GTP were added to the reaction mixtures and incubated for an additional 15 min at 37° C. Samples were transferred onto a formvar-carbon coated copper grid, stained with 2% uranyl acetate and observed using Transmission Electron Microscope (FEI TECHNAI G^2 12) as described previously (Beuria T K, Santra M K and Panda D. (2005) Sanguinarine blocks cytokinesis in bacteria by inhibiting FtsZ assembly and bundling. Biochemistry. 44, 16584-93).
The observed difference in the thickness of the FtsZ protofilament bundles in the absence and presence of 10 and 25 μM concentration is significant at a 99.9% confidence level (p<0.001).

FtsZ [5] = molecular target: T2, FtsZ; assay: Dilution-induced disassembly of preformed FtsZ filaments; assay type: biochemical, E. coli; settings: 20 fold dilution, 5 min at 37° C., concentration dependent
Source text: as §1
FtsZ (30 μM) was polymerized in 25 mM pipes buffer in the presence of 5 mM MgCl2, 1 mM GTP and 50 mM KCl. Preformed FtsZ polymers were diluted 20 fold in warm 25 mM pipes buffer in the absence and presence of different concentrations of Compound 1 and the mixtures were incubated for 5 min at 37° C. The polymers were then collected by centrifugation.

T2 sequence (P0A9A6 whole entry): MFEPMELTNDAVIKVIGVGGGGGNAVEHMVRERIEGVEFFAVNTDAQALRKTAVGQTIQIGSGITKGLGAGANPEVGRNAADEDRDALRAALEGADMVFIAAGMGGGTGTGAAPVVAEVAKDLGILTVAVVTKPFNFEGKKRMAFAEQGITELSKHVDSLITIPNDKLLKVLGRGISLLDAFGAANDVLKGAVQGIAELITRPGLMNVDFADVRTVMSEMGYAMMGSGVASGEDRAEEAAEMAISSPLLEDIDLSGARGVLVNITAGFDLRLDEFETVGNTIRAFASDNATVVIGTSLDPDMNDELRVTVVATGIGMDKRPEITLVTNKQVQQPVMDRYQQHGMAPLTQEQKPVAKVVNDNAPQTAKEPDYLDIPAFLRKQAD

O=C(O)c1cccc(-c2ccc(C=C3SC(=S)N(c4cccc(C(F)(F)F)c4)C3=O)o2)c1 [the compound, 3-{5-[4-Oxo-2-thioxo-3-(3-trifluoromethyl-phenyl)-thiazolidin-5-ylidenemethyl]-furan-2-yl}-benzoic acid]
Kd (FtsZ (Y371W)): 15 ± 1.5 µM | rate of GTP hydrolysis at 5 min (FtsZ [1]; 10 μM compound): 2.9 phosphate release per FtsZ per min | rate of GTP hydrolysis at 5 min (FtsZ [1]; 25 μM compound): 1.5 phosphate release per FtsZ per min | rate of GTP hydrolysis at 5 min (FtsZ [1]; 50 μM compound): 1.3 phosphate release per FtsZ per min | increase of sedimentable polymeric mass of FtsZ (FtsZ [2]): 25% | effect on secondary structure of FtsZ (far-UV CD) (FtsZ [3]): did not change the secondary structure | average thickness of FtsZ bundles (FtsZ [4]; 10 μM compound): 64±3 nm | average thickness of FtsZ bundles (FtsZ [4]; 25 μM compound): 66±4.3 nm | average thickness of FtsZ bundles (FtsZ [4]; 50 μM compound, large number of aggregates observed): 46±3.5 nm | dilution-induced disassembly of FtsZ protofilaments (FtsZ [5]): strongly prevented
